Data taken from ChEMBL document CHEMBL5214914, “Novel strategies to improve tumour therapy by targeting the proteins MCT1, MCT4 and LAT1” (Eur J Med Chem, 2021).

Assays:
[1] = target: T1, Monocarboxylate transporter 1 (Rattus norvegicus, UniProt P53987); experiment: Inhibition of MCT1 in rat RBE4 cells assessed as reduction in [14C]lactate uptake measured after 15 mins by liquid scintillation counting analysis; type: cell-based
T1 sequence (P53987 whole entry): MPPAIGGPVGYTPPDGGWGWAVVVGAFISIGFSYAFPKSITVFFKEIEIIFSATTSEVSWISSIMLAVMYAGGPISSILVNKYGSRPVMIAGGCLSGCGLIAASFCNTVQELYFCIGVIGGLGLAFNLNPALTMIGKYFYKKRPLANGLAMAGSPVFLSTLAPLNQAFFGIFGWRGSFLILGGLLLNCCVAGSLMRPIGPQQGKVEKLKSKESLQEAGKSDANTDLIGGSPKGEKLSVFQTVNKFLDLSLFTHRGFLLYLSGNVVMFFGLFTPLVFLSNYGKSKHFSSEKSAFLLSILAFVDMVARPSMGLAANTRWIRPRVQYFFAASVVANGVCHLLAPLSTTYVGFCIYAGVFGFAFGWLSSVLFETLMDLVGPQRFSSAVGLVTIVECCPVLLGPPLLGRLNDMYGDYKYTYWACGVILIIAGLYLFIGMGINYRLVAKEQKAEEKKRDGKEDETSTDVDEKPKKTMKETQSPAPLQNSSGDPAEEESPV

Raji = experiment: Cytotoxicity against human Raji cells; type: functional, cell-based
MIA PaCa-2 = experiment: Antitumor activity against human MIA PaCa-2 cells xenografted in ip dosed mouse assessed as prolongation of animal's mean life span; type: functional
BXPC-3 = experiment: Antitumor activity against human BXPC-3 cells xenografted in ip dosed mouse assessed as prolongation of animal's mean life span; type: functional
[2] = Drug metabolism in Sprague-Dawley rat plasma at 10 uM measured after 8 hrs; type: ADME, cell-free, Sprague-Dawely; settings: read-out: Drug metabolism
[3] = target: T2, Large neutral amino acids transporter small subunit 1 (Homo sapiens, UniProt Q01650); experiment: Inhibition of LAT1 (unknown origin) expressed in S2 cells assessed as inhibition of [14C]phenylalanine uptake at 50 uM; type: cell-based
[4] = target: T2, Large neutral amino acids transporter small subunit 1; experiment: Inhibition of LAT1 (unknown origin) expressed in astrocytes assessed as inhibition of [14C]phenylalanine uptake at 50 uM; type: cell-based; settings: Astrocyte
[5] = Half life in human; type: ADME
MCF7 = experiment: Antiproliferative activity against human MCF7 cells assessed as inhibition of cell growth; type: functional, cell-based
[6] = target: T2, Large neutral amino acids transporter small subunit 1; experiment: Inhibition of LAT1 in human MCF7 cells assessed as inhibition of leucine uptake; type: cell-based

T2 sequence (Q01650 whole entry): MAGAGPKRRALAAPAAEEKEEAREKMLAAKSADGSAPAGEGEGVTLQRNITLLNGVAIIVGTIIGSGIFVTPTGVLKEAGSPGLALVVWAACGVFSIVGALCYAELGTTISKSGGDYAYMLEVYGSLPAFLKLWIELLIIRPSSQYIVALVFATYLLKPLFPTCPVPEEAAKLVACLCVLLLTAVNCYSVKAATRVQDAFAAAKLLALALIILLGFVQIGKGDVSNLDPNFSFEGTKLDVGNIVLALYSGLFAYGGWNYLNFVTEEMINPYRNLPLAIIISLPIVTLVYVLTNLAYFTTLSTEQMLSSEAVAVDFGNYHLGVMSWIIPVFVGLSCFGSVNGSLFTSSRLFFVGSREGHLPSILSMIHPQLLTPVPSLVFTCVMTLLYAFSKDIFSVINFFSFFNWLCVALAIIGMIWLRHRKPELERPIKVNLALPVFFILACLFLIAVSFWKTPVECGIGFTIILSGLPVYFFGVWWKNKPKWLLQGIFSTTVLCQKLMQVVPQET

## N#C/C(=C\c1ccc(O)cc1)C(=O)O [alpha-CYANO-4-HYDROXYCINNAMIC ACID]
[1]
  IC50: 281 nM

## CC(C)Cc1nn(C)c(=O)c2c(SCCCO)n(Cc3ccc(C#CCCCOc4ccc(C[C@H](N)C(=O)O)cc4)c4ccccc34)cc12
Raji
  EC50: 0.8 nM

## Nc1cc(COc2c(Cl)cc(CC(N)C(=O)O)cc2Cl)c2oc(-c3ccccc3)nc2c1 (stereo not given)
MIA PaCa-2
  ILS: 14 days
BXPC-3
  ILS: 10 days

## CC(C)Cc1nn(C)c(=O)c2c(SCCCO)n(Cc3cnc(NCCCCCNC(=O)[C@H](N)CCC(N)=O)c4ccccc34)cc12
Raji
  EC50: 0.16 nM

## C[C@@H](O)[C@H](Nc1ccn([C@@H]2O[C@H](CO)[C@@H](O)C2(F)F)c(=O)n1)C(=O)O
[2]
  metabolised at 8 h, 10 µM: 20%

## NC(Cc1cc(I)c(Oc2ccc(O)c(I)c2)c(I)c1)C(=O)O (stereo not given)
[3]
  inhibition: 90%
[4]
  inhibition: 90%

## CC(C)Cc1nn(C)c(=O)c2c(SCCCO)n(Cc3cc(NCCCCCNC(=O)[C@H](N)CCC(N)=O)nc4ccccc34)cc12
Raji
  EC50: 0.8 nM

## Nc1ccn([C@@H]2O[C@H](CO)[C@@H](O)C2(F)F)c(=O)n1 [GEMCITABINE]
[5]
  half-life: 9 min

## CC(C)Cc1nn(C)c(=O)c2c(SCCCO)n(Cc3ccc(C#CCCCNC(=O)[C@H](N)CCC(N)=O)c4ccccc34)cc12
Raji
  EC50: 4 nM

## CNC(=O)COc1ccc(C2=C(C#N)C3N=C4C=CC=CC4N3C(NC(=O)c3cccc(C[C@H](N)C(=O)O)c3)=C2C#N)cc1 (stereo not given in full)
MCF7
  IC50: 124000 nM
[6]
  IC50: 18200 nM

## CC(C)Cc1nn(C)c(=O)c2c(SCCCO)n(Cc3cnc(NCCCCCN)c4ccccc34)cc12
Raji
  EC50: 0.8 nM

## CC(C)c1ccc(/C=C(\C#N)C(=O)O)cc1
[1]
  IC50: 66 nM
